Measured values taken from the supplement of paper PMC13380429.

Assays:
Conditions in all cases: 72 h
HepG2 [1] = assay: cell viability relative to DMSO; higher = less toxic
Calu-3 [2] = assay: as above
U2OS [3] = assay: as above
Vero E6 [4] = assay: as above
Caco-2 [5] = assay: as above
HepG2 [6] = assay: relative viability EC50 (midpoint between 100% and the lowest measured viability); higher = less toxic
Calu-3 [7] = assay: as above
U2OS [8] = assay: as above
Vero E6 [9] = assay: as above
Caco-2 [10] = assay: as above
HepG2 [11] = assay: drug sensitivity score (DSS) for viability; higher = more toxic; extreme values may be limits of the assay
Calu-3 [12] = assay: as above
U2OS [13] = assay: as above
Vero E6 [14] = assay: as above
Caco-2 [15] = assay: as above

Compound	cell viability (HepG2 [1]; 1 nM)	cell viability (HepG2 [1]; 10 nM)	cell viability (HepG2 [1]; 100 nM)	cell viability (HepG2 [1]; 1000 nM)	cell viability (HepG2 [1]; 10000 nM)	cell viability (Calu-3 [2]; 1 nM)	cell viability (Calu-3 [2]; 10 nM)	cell viability (Calu-3 [2]; 100 nM)	cell viability (Calu-3 [2]; 1000 nM)	cell viability (Calu-3 [2]; 10000 nM)	cell viability (U2OS [3]; 1 nM)	cell viability (U2OS [3]; 10 nM)	cell viability (U2OS [3]; 100 nM)	cell viability (U2OS [3]; 1000 nM)	cell viability (U2OS [3]; 10000 nM)	cell viability (Vero E6 [4]; 1 nM)	cell viability (Vero E6 [4]; 10 nM)	cell viability (Vero E6 [4]; 100 nM)	cell viability (Vero E6 [4]; 1000 nM)	cell viability (Vero E6 [4]; 10000 nM)	cell viability (Caco-2 [5]; 1 nM)	cell viability (Caco-2 [5]; 10 nM)	cell viability (Caco-2 [5]; 100 nM)	cell viability (Caco-2 [5]; 1000 nM)	cell viability (Caco-2 [5]; 10000 nM)	relative viability EC50 (HepG2 [6])	relative viability EC50 (Calu-3 [7])	relative viability EC50 (U2OS [8])	relative viability EC50 (Vero E6 [9])	relative viability EC50 (Caco-2 [10])	drug sensitivity score (HepG2 [11])	drug sensitivity score (Calu-3 [12])	drug sensitivity score (U2OS [13])	drug sensitivity score (Vero E6 [14])	drug sensitivity score (Caco-2 [15])
COc1ccc(S(=O)(=O)Nc2cc(Cl)cc(Cl)c2OC)cc1N1CCNCC1	98.9%	90.2%	103%	98.7%	102%	99%	103%	99.2%	106%	111%	109%	98%	105%	96.3%	100%	102%	103%	99.1%	98.7%	91.2%	102%	97.9%	97.9%	92.9%	94.7%	> 10 µM	> 10 µM	> 10 µM	> 10 µM	> 10 µM	0	0	0	0	0
CS(=O)(=O)N1CCc2c(-c3cnc(N)nc3)nc(N3CCOCC3)nc21	111%	101%	95.3%	72.6%	33.3%	94.2%	96.3%	98.2%	70.5%	29.3%	99.5%	97.5%	99.9%	92%	47.1%	104%	108%	95.3%	87.4%	41.7%	93.3%	97.6%	96.9%	72%	33.3%	1.22 µM	1.17 µM	1.98 µM	1.67 µM	1.19 µM	6.9	7.6	4.2	5.2	7
C[C@@H](Oc1ccc2[nH]nc(/C=C/c3cnn(CCO)c3)c2c1)c1c(Cl)cncc1Cl	108%	102%	85.5%	46.4%	10.6%	101%	99.9%	98.6%	75.5%	31.8%	94.3%	94.3%	91%	33.5%	0.2%	95.3%	92.4%	98.6%	71.9%	12.7%	87.3%	99.5%	91.5%	83.3%	33.1%	0.617 µM	1.26 µM	0.582 µM	1.35 µM	1.61 µM	12.1	7.2	14	8.9	6.1
C[C@H](NC[C@H](O)CP(=O)(O)CC1CCCCC1)c1ccc(Cl)c(Cl)c1	103%	97.6%	99.3%	98.6%	96.8%	76.5%	104%	95.2%	102%	91.7%	94.6%	102%	94.2%	101%	99.8%	107%	101%	104%	98.7%	104%	96.1%	92.1%	93.9%	99.5%	91.4%	> 10 µM	> 10 µM	> 10 µM	> 10 µM	> 10 µM	0	0	0	0	0
C[C@H](c1ccc(F)cc1CCCC(=O)O)N(c1cc(F)ccc1F)S(=O)(=O)c1ccc(Cl)cc1	93.1%	103%	94%	98.8%	93.6%	105%	98.9%	99.4%	103%	103%	101%	93.5%	97.8%	93.1%	96.2%	103%	100%	102%	103%	98.8%	101%	97.5%	112%	92.6%	89.5%	> 10 µM	> 10 µM	> 10 µM	> 10 µM	> 10 µM	0	0	0	0	0.1
Cc1cccc(-c2nn3c(c2-c2ccnc4ccc(C(N)=O)cc24)CCC3)n1	103%	96.5%	106%	99.4%	106%	95.4%	108%	91.4%	105%	113%	98.3%	99.5%	95.8%	96%	92.6%	98.9%	99%	101%	99.9%	113%	96.9%	87.8%	93.1%	100%	109%	> 10 µM	> 10 µM	> 10 µM	> 10 µM	> 10 µM	0	0	0	0	0
N=C(N)NCCC[C@H](NC(=O)c1sccc1NS(=O)(=O)c1cccc2nsnc12)C(=O)O	105%	101%	95.8%	105%	103%	92.7%	110%	106%	117%	110%	98.3%	102%	96.3%	105%	98.4%	105%	103%	101%	98.4%	97.1%	96.9%	104%	98.5%	101%	105%	> 10 µM	> 10 µM	> 10 µM	> 10 µM	> 10 µM	0	0	0	0	0
